# Assay: Biodistribution of radiotracers in normal mice
# Assay type: in vivo, mouse
# Method in brief: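 Male CD-1 mice received 35 μCi [^68Ga] radiotracer (0.2 nmole ligand) by tail vein. Four mice per time point sacrificed at 2, 30, 60 and 120 min p.i.; organs and blood weighed and gamma counted. %ID/g calculated against a standard dilution of the dose, decay-corrected.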
structure (smiles),measurement,setting,value
O=C(O)CCc1ccc2c(c1)C[N+]13CC[N+]45CC(=O)[O][68Ga-3]14([O]C(=O)C3)([O]2)[O]c1ccc(CCC(=O)NCC(=O)N[C@@H](Cc2ccc(OCC(=O)N[C@@H](Cc3ccccc3)C(=O)NCCCC[C@H](NC(=O)N[C@@H](CCC(=O)O)C(=O)O)C(=O)O)cc2)C(=O)O)cc1C5 (stereo partly shown) [[^68Ga]5b],"Clearance from organs, in words",normal CD-1 male mice,cleared quickly and well except kidneys and spleen
same,Biodistribution: Body leftover,"normal CD-1 male mice, 2 min",2.30 ± 0.05 % dose/g
same,Biodistribution: Fat,"normal CD-1 male mice, 2 min",2.08 ± 0.27 % dose/g
same,Biodistribution: Large intestine,"normal CD-1 male mice, 2 min",1.20 ± 0.20 % dose/g
same,Biodistribution: Seminal vesicles,"normal CD-1 male mice, 2 min",1.47 ± 0.25 % dose/g
same,Biodistribution: Small intestine,"normal CD-1 male mice, 2 min",2.46 ± 0.15 % dose/g
same,Biodistribution: Stomach,"normal CD-1 male mice, 2 min",0.81 ± 0.29 % dose/g
same,Biodistribution: Tail,"normal CD-1 male mice, 2 min",8.08 ± 0.78 % dose/g
same,Biodistribution: Testes,"normal CD-1 male mice, 2 min",0.96 ± 0.15 % dose/g
same,Biodistribution: Body leftover,"normal CD-1 male mice, 30 min",0.98 ± 0.05 % dose/g
same,Biodistribution: Fat,"normal CD-1 male mice, 30 min",1.45 ± 0.13 % dose/g
same,Biodistribution: Large intestine,"normal CD-1 male mice, 30 min",0.37 ± 0.04 % dose/g
same,Biodistribution: Seminal vesicles,"normal CD-1 male mice, 30 min",1.13 ± 0.19 % dose/g
same,Biodistribution: Small intestine,"normal CD-1 male mice, 30 min",1.03 ± 0.07 % dose/g
same,Biodistribution: Stomach,"normal CD-1 male mice, 30 min",0.31 ± 0.07 % dose/g
same,Biodistribution: Tail,"normal CD-1 male mice, 30 min",2.92 ± 0.95 % dose/g
same,Biodistribution: Testes,"normal CD-1 male mice, 30 min",1.14 ± 0.21 % dose/g
same,Biodistribution: Body leftover,"normal CD-1 male mice, 60 min",0.52 ± 0.11 % dose/g
same,Biodistribution: Fat,"normal CD-1 male mice, 60 min",0.73 ± 0.11 % dose/g
same,Biodistribution: Large intestine,"normal CD-1 male mice, 60 min",0.31 ± 0.21 % dose/g
same,Biodistribution: Seminal vesicles,"normal CD-1 male mice, 60 min",0.94 ± 0.22 % dose/g
same,Biodistribution: Small intestine,"normal CD-1 male mice, 60 min",0.74 ± 0.17 % dose/g
same,Biodistribution: Stomach,"normal CD-1 male mice, 60 min",0.17 ± 0.06 % dose/g
same,Biodistribution: Tail,"normal CD-1 male mice, 60 min",1.73 ± 0.55 % dose/g
same,Biodistribution: Testes,"normal CD-1 male mice, 60 min",0.82 ± 0.06 % dose/g
same,Biodistribution: Body leftover,"normal CD-1 male mice, 120 min",0.27 ± 0.01 % dose/g
same,Biodistribution: Fat,"normal CD-1 male mice, 120 min",0.35 ± 0.04 % dose/g
same,Biodistribution: Large intestine,"normal CD-1 male mice, 120 min",0.54 ± 0.16 % dose/g
same,Biodistribution: Seminal vesicles,"normal CD-1 male mice, 120 min",0.64 ± 0.10 % dose/g
same,Biodistribution: Small intestine,"normal CD-1 male mice, 120 min",0.45 ± 0.12 % dose/g
same,Biodistribution: Stomach,"normal CD-1 male mice, 120 min",0.22 ± 0.05 % dose/g
same,Biodistribution: Tail,"normal CD-1 male mice, 120 min",0.55 ± 0.04 % dose/g
same,Biodistribution: Testes,"normal CD-1 male mice, 120 min",0.68 ± 0.06 % dose/g
same,Biodistribution: Blood,"normal male mice, 2 min",7.94 ± 0.52 % dose/g
same,Biodistribution: Bone,"normal male mice, 2 min",2.16 ± 0.11 % dose/g
same,Biodistribution: Brain,"normal male mice, 2 min",0.19 ± 0.02 % dose/g
same,Biodistribution: Heart,"normal male mice, 2 min",4.33 ± 0.11 % dose/g
same,Biodistribution: Kidney,"normal male mice, 2 min",50.32 ± 3.31 % dose/g
same,Biodistribution: Liver,"normal male mice, 2 min",2.97 ± 0.24 % dose/g
same,Biodistribution: Lung,"normal male mice, 2 min",5.75 ± 0.26 % dose/g
same,Biodistribution: Muscle,"normal male mice, 2 min",1.97 ± 0.16 % dose/g
same,Biodistribution: Pancreas,"normal male mice, 2 min",2.18 ± 0.04 % dose/g
same,Biodistribution: Skin,"normal male mice, 2 min",2.38 ± 0.10 % dose/g
same,Biodistribution: Spleen,"normal male mice, 2 min",3.86 ± 0.57 % dose/g
same,Biodistribution: Blood,"normal male mice, 30 min",1.13 ± 0.13 % dose/g
same,Biodistribution: Bone,"normal male mice, 30 min",0.60 ± 0.02 % dose/g
same,Biodistribution: Brain,"normal male mice, 30 min",0.05 ± 0.01 % dose/g
same,Biodistribution: Heart,"normal male mice, 30 min",0.98 ± 0.06 % dose/g
same,Biodistribution: Kidney,"normal male mice, 30 min",73.96 ± 5.56 % dose/g
same,Biodistribution: Liver,"normal male mice, 30 min",0.95 ± 0.11 % dose/g
same,Biodistribution: Lung,"normal male mice, 30 min",2.63 ± 0.08 % dose/g
same,Biodistribution: Muscle,"normal male mice, 30 min",0.67 ± 0.05 % dose/g

# Reference: patent US10688200B2, “Urea-based prostate specific membrane antigen (PSMA) inhibitors for imaging and therapy” (Five Eleven Pharma Inc., priority 2015, dated 2020)
